The results in this text go back to ChEMBL document CHEMBL1146314, “Methotrexate gamma-hydroxamate derivatives as potential dual target antitumor drugs” (Bioorg Med Chem, 2007).

In experiment [1] the test system is A549. Nature of the experiment: Antiproliferative activity against A549 cells after 72 hrs by MTT assay. The note with it: Homo sapiens, A549, 72 h. It is filed as functional, cell-based. On the technique in general: Tetrazolium assays rely on reduction of a dye to a coloured formazan, in cell work by metabolically active cells.
Experiment [2] addresses T1, 72 kDa type IV collagenase (Homo sapiens, UniProt P08253). Put plainly: Inhibition of human recombinant MMP2 at 100 uM.
Target sequence in this assay (P08253 110-660 limits assumed): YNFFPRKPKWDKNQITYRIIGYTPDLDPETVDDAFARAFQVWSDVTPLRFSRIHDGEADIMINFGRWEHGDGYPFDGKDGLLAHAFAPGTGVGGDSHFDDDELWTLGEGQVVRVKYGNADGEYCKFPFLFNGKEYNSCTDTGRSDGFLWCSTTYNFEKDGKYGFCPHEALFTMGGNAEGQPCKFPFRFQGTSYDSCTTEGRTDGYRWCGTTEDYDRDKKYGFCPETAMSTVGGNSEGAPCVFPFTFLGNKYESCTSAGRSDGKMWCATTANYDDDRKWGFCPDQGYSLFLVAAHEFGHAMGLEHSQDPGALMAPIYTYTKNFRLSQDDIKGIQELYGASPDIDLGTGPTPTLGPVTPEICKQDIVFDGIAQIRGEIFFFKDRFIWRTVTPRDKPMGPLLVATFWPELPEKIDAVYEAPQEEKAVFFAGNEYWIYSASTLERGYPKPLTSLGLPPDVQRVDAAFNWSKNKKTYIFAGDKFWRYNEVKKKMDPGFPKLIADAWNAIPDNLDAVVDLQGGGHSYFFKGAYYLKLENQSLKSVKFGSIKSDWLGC
Experiment [3] has as its target T2, Matrix metalloproteinase-9 (Homo sapiens, UniProt P14780). Nature of the experiment: Inhibition of human recombinant MMP9 at 100 uM.
The target of experiment [4] is T3, Matrilysin (Homo sapiens) (UniProt P09237).
T3 sequence (whole entry): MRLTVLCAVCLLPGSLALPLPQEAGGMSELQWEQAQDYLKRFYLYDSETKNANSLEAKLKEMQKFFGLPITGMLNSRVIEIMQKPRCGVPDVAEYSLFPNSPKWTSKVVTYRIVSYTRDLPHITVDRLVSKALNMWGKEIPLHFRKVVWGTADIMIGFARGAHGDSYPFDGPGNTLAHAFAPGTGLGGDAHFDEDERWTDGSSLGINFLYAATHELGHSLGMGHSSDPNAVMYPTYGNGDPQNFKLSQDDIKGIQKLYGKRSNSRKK
Nature of the experiment: Inhibition of human recombinant MMP7 at 100 uM.

Experiment [5] relates to PPC-1. Nature of the experiment: Antiproliferative activity against PPC1 cells after 72 hrs by MTT assay. It is filed as functional, cell-based. The following applies: Homo sapiens, PPC-1, 72 h.
Experiment [6] is described as follows: Antiproliferative activity against Tsu-Pr1 cells after 72 hrs by MTT assay. It is filed as functional, cell-based. The note with it: Homo sapiens, TSU-Pr1, 72 h.
Experiment [7] deals with T4, Matrix metalloproteinase-14 (Homo sapiens, UniProt P50281). Nature of the experiment: Inhibition of human recombinant MMP14 at 100 uM.
Experiment [8] can be described thus: Antiproliferative activity against Tsu-Pr1 cells after 72 hrs in folate depleted media. It is filed as functional, cell-based. The note with it: Homo sapiens, TSU-Pr1, 72 h.
Experiment [9] concerns PPC-1. Nature of the experiment: Antiproliferative activity against PPC1 cells after 72 hrs in folate depleted media. It is filed as functional, cell-based. The following applies: Homo sapiens, PPC-1, 72 h.
The test system of experiment [10] is A549. Put plainly: Antiproliferative activity against A549 cells after 72 hrs in folate depleted media. It is filed as functional, cell-based. The note with it: Homo sapiens, A549, 72 h.
Experiment [11] has as its target T5, Dihydrofolate reductase (Homo sapiens, UniProt P00374).
T5 sequence (P00374 whole entry): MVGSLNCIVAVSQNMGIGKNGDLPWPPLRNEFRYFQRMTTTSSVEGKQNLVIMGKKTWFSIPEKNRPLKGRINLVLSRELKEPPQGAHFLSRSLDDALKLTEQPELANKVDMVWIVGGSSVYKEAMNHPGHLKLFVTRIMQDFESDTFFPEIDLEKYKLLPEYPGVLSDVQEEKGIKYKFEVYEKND
Description: Inhibition of DHFR using folic acid substrate

A further experiment has as its target T6, Matrilysin (Homo sapiens, UniProt P09237).
T6 sequence (P09237 whole entry): T3 sequence (whole entry)
Nature of the experiment: Inhibition of human recombinant MMP7.

The target of experiment [12] is T5, Dihydrofolate reductase. The source holds these as a separate data set.
Description: Inhibition of DHFR using dihydrofolic acid substrate
For experiment [13], the target named is T4, Matrix metalloproteinase-14. Nature of the experiment: Ratio of IC50 of drug to CGS 27023A for human recombinant MMP14.
Experiment [14] concerns the target T1, 72 kDa type IV collagenase. Put plainly: Ratio of IC50 of drug to CGS 27023A for human recombinant MMP2.
Target sequence in this assay (P08253 110-660 limits assumed): as the sequence (P08253 110-660 limits assumed) above
The target in experiment [15] is T2, Matrix metalloproteinase-9. Nature of the experiment: Inhibition of human recombinant MMP9.
The target of experiment [16] is T3, Matrilysin (Homo sapiens). Nature of the experiment: Ratio of IC50 of drug to CGS 27023A for human recombinant MMP7.
Experiment [17] concerns the target T4, Matrix metalloproteinase-14. Nature of the experiment: Inhibition of human recombinant MMP14.
For experiment [18], the target named is T2, Matrix metalloproteinase-9. Nature of the experiment: Ratio of IC50 of drug to CGS 27023A for human recombinant MMP9.
Experiment [19] concerns the target T1, 72 kDa type IV collagenase. Nature of the experiment: Inhibition of human recombinant MMP2.
Target sequence in this assay (P08253 whole entry): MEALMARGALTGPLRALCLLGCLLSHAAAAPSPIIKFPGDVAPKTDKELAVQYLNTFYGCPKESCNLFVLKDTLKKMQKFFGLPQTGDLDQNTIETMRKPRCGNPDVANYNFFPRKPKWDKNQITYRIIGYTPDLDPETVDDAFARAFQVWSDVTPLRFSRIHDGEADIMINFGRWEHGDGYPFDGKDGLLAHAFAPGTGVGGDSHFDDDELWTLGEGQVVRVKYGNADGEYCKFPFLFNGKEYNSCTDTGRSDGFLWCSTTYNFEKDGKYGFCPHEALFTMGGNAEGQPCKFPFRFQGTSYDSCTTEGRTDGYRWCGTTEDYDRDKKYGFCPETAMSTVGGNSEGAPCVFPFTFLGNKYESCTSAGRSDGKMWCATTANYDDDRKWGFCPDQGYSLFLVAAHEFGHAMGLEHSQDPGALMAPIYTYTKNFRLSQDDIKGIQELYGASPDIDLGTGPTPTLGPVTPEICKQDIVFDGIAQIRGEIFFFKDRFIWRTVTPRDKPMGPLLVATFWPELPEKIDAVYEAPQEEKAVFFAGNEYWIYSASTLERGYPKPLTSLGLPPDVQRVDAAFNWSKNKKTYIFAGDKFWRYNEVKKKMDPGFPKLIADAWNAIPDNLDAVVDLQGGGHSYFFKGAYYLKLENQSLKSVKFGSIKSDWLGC

pIC50: −log10 of the molar value.

T2 sequence (P14780 whole entry): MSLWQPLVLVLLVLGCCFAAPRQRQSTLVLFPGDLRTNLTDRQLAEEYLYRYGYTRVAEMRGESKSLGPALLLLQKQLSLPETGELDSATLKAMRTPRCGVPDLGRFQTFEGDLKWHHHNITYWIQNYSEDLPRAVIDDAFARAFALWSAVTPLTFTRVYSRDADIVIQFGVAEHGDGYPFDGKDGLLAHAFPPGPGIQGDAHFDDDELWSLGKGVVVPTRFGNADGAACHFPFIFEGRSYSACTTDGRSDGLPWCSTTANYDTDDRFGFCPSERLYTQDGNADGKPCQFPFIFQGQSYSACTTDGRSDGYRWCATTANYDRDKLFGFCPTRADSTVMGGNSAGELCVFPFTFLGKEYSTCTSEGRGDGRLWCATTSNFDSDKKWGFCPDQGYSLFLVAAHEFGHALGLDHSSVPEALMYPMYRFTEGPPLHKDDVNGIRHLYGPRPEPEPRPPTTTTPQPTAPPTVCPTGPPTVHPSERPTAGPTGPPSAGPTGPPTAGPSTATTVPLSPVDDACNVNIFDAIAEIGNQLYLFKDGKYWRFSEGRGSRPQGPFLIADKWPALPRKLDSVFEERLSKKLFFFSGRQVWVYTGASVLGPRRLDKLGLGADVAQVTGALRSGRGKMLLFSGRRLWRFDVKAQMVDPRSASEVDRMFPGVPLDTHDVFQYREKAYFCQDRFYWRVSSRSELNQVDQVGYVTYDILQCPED

Take `Nc1nc2ncc(CNc3ccc(C(=O)N[C@@H](CCC(=O)NO)C(=O)O)cc3)nc2c(=O)[nH]1`: the figures for the pIC50 (with A549 [1]; in the experiment on PPC-1 [5]; in experiment [6]) were 4.00, 4.10 and 3.92, respectively. In addition, the inhibition in experiment [2] amounted to 66%; in experiment [3], 55%; in experiment [4] it was 53%; in experiment [7], 42%.

Turning to `CN(Cc1cnc2nc(N)nc(N)c2n1)c1ccc(C(=O)N[C@@H](CCC(=O)NO)C(=O)O)cc1`, the pIC50 in [8] is 8.00; in the experiment on A549 [1], 5.22; in the experiment with PPC-1 [9], 7.30; with A549 [10], 7.00; on Dihydrofolate reductase [11], 6.77; at Matrilysin, 4.00. Also, the pIC50 was 5.70 in the experiment with PPC-1 [5], 5.70 in experiment [6] and 7.15 against Dihydrofolate reductase [12]. Also, the inhibition was 67% in experiment [2], 61% in experiment [3] and 48% in experiment [7].

In the case of `CN(Cc1cnc2nc(N)nc(N)c2n1)c1ccc(C(=O)N[C@@H](CCC(=O)N2CCC[C@H]2C(=O)NO)C(=O)O)cc1`, the pIC50 in [8] was 7.00; in the experiment with A549 [1], 5.12; in the experiment with PPC-1 [9], 6.70; in the experiment on A549 [10] it was 6.30; on Dihydrofolate reductase [11] it was 6.89; in the experiment on PPC-1 [5], 5.74. The negative-log IC50 (pIC50) was 5.64 in experiment [6] and 6.92 against Dihydrofolate reductase [12]. For the same compound, the inhibition in experiment [2] was 56%; in experiment [3], 61%; in experiment [4] it was 43%; in experiment [7], 47%.

As to `CN(Cc1cnc2nc(N)nc(N)c2n1)c1ccc(C(=O)N[C@@H](CCC(=O)N[C@@H](Cc2ccccc2)C(=O)NO)C(=O)O)cc1`, the Ratio IC50 is 3040 in [13], 2500 in experiment [14], 440 in experiment [16] and 3000 in experiment [18]. Besides, the negative-log IC50 (pIC50) in experiment [8] was 6.92; in the experiment with A549 [1] it was 5.19; in the experiment with PPC-1 [9], 6.30; in the experiment with A549 [10], 6.30; on Dihydrofolate reductase [11], 6.60; in [15], 4.82. Also, the negative-log IC50 (pIC50) at Matrilysin is 4.36; in the experiment on PPC-1 [5] it was 5.32; in experiment [6], 5.70; in [17], 4.15; in experiment [19], 4.22; against Dihydrofolate reductase [12], 6.77.

On to `COc1ccc(S(=O)(=O)N(Cc2cccnc2)[C@@H](C(=O)NO)C(C)C)cc1` [CGS-27023A], for which the pIC50 in [17] is 7.64.

Turning to `NC1=NC(=O)C2N=C(CNc3ccc(C(=O)N[C@@H](CCC(=O)N4CCC[C@H]4C(=O)NO)C(=O)O)cc3)C=NC2=N1` (stereo not given in full), the results for the pIC50 (in the experiment on A549 [1]; in the experiment with PPC-1 [5]; in experiment [6]) were 3.89, 3.92 and 4.10, respectively. The inhibition in experiment [2] was found to be 58%; in experiment [4], 54%.

As to `Nc1nc2ncc(CNc3ccc(C(=O)N[C@@H](CCC(=O)N[C@@H](Cc4ccccc4)C(=O)NO)C(=O)O)cc3)nc2c(=O)[nH]1`, the Ratio IC50 is 3480 in experiment [13], 2710 in experiment [14], 150 in [16] and 4400 in experiment [18]. Besides, the pIC50 was 3.96 in the experiment with A549 [1]; 4.66 in experiment [15]; 4.82 on Matrilysin; 4.15 in the experiment on PPC-1 [5]; 3.82 in experiment [6]; 4.10 in experiment [17]. In addition, the negative logarithm of the IC50 (pIC50) in experiment [19] was 4.19.

Consider `CN(Cc1cnc2nc(N)nc(N)c2n1)c1ccc(C(=O)N[C@@H](CCC(=O)O)C(=O)O)cc1` [METHOTREXATE], for which the pIC50 in [8] was 8.10; with A549 [1], 7.00; with PPC-1 [9], 8.00; in the experiment on A549 [10], 7.70; in the experiment with PPC-1 [5] it was 7.00; in experiment [6] it was 7.00.

The term pIC50 denotes the IC50 on a negative log10 scale, so that one unit is a factor of ten. The term inhibition denotes the relative decrease from the control value, in per cent.
